Assay results taken from patent US20060135494A1, “Methods of treating injuries of the nervous system associated with hemorrhage” (priority 2002, published 2006).

Experiments:
collagenase-induced ICH = test: Neurological testing: limb placement / step initiation after ICH; format: in vivo, rat
Text: All animals received humane care in compliance with the institute's guidelines as outlined in “Guide for the Care and Use of Laboratory Animals” prepared by the National Academy of Sciences and published by the National Institutes of Health (NIH publication no. 86-23, revised 1985). Female Sprague-Dawley rats (250-300 grams (g); Harlan Sprague-Dawley, Inc., Indianapolis, Ind.) were anesthesized with an intramuscular injection of a mixture of ketamine and xylazine and set in supine in a Kopf headholder. The right carotid artery, external and internal branches, was exposed and the distal end of the external carotid freed and retracted to line with the internal carotid. A PE-10 polyethylene tube (Becton-Dickinson, Sparks, Md.) was then introduced from the external into the internal carotid artery, and the former was ligated to hold the tube. […]
The animals were tested for rotational behavior in response to apomorphine 2 days after surgery. Apomorphine (1 mg/kg bw; Sigma Chemical Co.) was injected subcutaneously, and rotations were determined by a computer-controlled Columbus Instruments Videomex-V system (Columbus, Ohio). […] Step initiation was assessed at 2 days after ICH by independently analyzing stepping behavior in the left and right forelimbs. […] The number of steps initiated by each limb was counted during a 1-minute period.

[1] = system: NF-κB/IκBα protein complex; test: Immunoblotting and immunohistochemistry of NF-κB/IκBα in ICH rat brain; format: in vivo
Text: All animals received humane care in compliance with the institute's guidelines as outlined in “Guide for the Care and Use of Laboratory Animals” prepared by the National Academy of Sciences and published by the National Institutes of Health (NIH publication no. 86-23, revised 1985). Female Sprague-Dawley rats (250-300 grams (g); Harlan Sprague-Dawley, Inc., Indianapolis, Ind.) were anesthesized with an intramuscular injection of a mixture of ketamine and xylazine and set in supine in a Kopf headholder. The right carotid artery, external and internal branches, was exposed and the distal end of the external carotid freed and retracted to line with the internal carotid. A PE-10 polyethylene tube (Becton-Dickinson, Sparks, Md.) was then introduced from the external into the internal carotid artery, and the former was ligated to hold the tube. TUDCA (Calbiochem-Novabiochem Corp., San Diego, Calif.) was dissolved in phosphate buffer, pH 7.4 at 400 milligrams per milliliter (mg/ml). Saline or TUDCA solution (1 milliliter per kilogram body weight (ml/kg bw)) were injected directly into the internal carotid artery, within 5 minutes. […]
Bcl-2 family, NF-κB, IκB, p-Akt, and p-Bad protein levels were determined from total protein homogenates separated by 12% sodium dodecyl sulfate polyacrylamide gel electrophoresis (SDS-PAGE). […]

[2] = system: traumatic brain injury (blunt head trauma); test: TUNEL-positive cells in blunt head trauma rat model; format: in vivo
Text: UDCA and TUDCA are nontoxic, endogenously produced, bile acids that act both in vitro and in vivo as potent anti-apoptotic agents. In addition to their effects at preventing mitochondrial dysfunction by inhibiting membrane depolarization and channel formation (Rodrigues et al., J Clin Invest 1998;101:2790-2799 and Rodrigues et al., Cell Death Differ 1999;6:842-854), these molecules may also play key regulatory roles in signal transduction pathways by modulating cytosolic calcium levels and in gene expression by regulating transcription (Guicciari et al., Hepatology 2002;35:971-973). […] Administration of TUDCA almost completely abolished the appearance of TUNEL-positive cells, the activation of caspase-3-like proteases, and the histological damage of the peri-ICH region. These findings are consistent with the inhibition of neuronal apoptosis by TUDCA. Further, most neurons can be rescued by TUDCA up to 3 hours, and some up to 6 hours, from the onset of the hemorrhage, consistent with a delayed activation of neuronal cell death. Thus, at least in this model, many cells remain viable for several hours and can be recovered by an anti-apoptotic agent, provided therapy is initiated within this time window. Finally, TUDCA was also markedly effective at reducing apoptosis after brain injury in a blunt head trauma rat model. […]

**Q.** What does the source list for `C[C@H](CCC(=O)NCCS(=O)(=O)O)[C@H]1CC[C@H]2[C@@H]3[C@@H](O)C[C@@H]4C[C@H](O)CC[C@]4(C)[C@H]3CC[C@]12C` [TUDCA, tauroursodeoxycholic acid]?
**A.** improved motor activity in test of limb placement (collagenase-induced ICH; time-course experiment of TUDCA administration, 2 days after ICH): 25-40%; steps initiated by left forelimb in 1-minute period versus vehicle (collagenase-induced ICH; unilateral striatal hemorrhage, 2 days): significantly more steps; NF-κB activation in the peri-ICH region (immunohistochemistry, words) ([1]; 100 mg/kg bw TUDCA, 2 days after ICH): markedly decreased; IκBα protein level (Western blot, words) ([1]; increasing doses of TUDCA (10-200 mg/kg bw) 1 hour before collagenase, ipsilateral hemisphere): largely restored; reduction of apoptosis ([2]; 24-h pre-injury treatment plus treatments at head trauma and 24 h later): more than 50%; number of TUNEL-positive cells per high power field ([2]; 24-h pre-injury treatment plus two post-injury treatments, vehicle approximately 27): 12
